# Test results: patent US12077503B2, “Substituted cyclic amides and their use as herbicides” (FMC CORPORATION, priority 2015, dated 2024)
# Legend:
# Type in all cases: in vivo
# [1] = system: ragweed (common ragweed, Ambrosia elatior); experiment: Test A postemergence; settings: postemergence
# From the text: (§1) Seeds of plant species selected from barnyardgrass (Echinochloa crus-galli), Kochia (Kochia scoparia), ragweed (common ragweed, Ambrosia elatior), ryegrass, Italian (Italian ryegrass, Lolium multiflorum), crabgrass, large (Digitaria sanguinalis), giant foxtail (Setaria faberii), green foxtail (Setaria viridis), morningglory (Ipomoea spp.), pigweed (Amaranthus retroflexus), velvetleaf (Abutilon theophrasti), wheat (Triticum aestivum), and corn (Zea mays) were planted into a blend of loam soil and sand and treated preemergence with a directed soil spray using test chemicals formulated in anon-phytotoxic solvent mixture which included a surfactant.
# (§2) At the same time, plants selected from these crop and weed species and also blackgrass (Alopecurus myosuroides), and Galium (catchweed bedstraw, Galium aparine) were planted in pots containing the same blend of loam soil and sand and treated with postemergence applications of test chemicals formulated in the same manner. Plants ranged in height from 2 to 10 cm and were in the one- to two-leaf stage for the postemergence treatment. Treated plants and untreated controls were maintained in a greenhouse for approximately 10 d, after which time all treated plants were compared to untreated controls and visually evaluated for injury. Plant response ratings, summarized in Table A, are based on a 0 to 100 scale where 0 is no effect and 100 is complete control. A dash (-) response means no test result.
# [2] = system: wheat (Triticum aestivum); experiment: Test A postemergence; settings: postemergence
# From the text: as §1, §2
# [3] = system: barnyardgrass (Echinochloa crus-galli); experiment: Test A postemergence; settings: postemergence
# From the text: as §1, §2
# [4] = system: blackgrass (Alopecurus myosuroides); experiment: Test A postemergence; settings: postemergence
# From the text: as §1, §2
# [5] = system: Galium (catchweed bedstraw, Galium aparine); experiment: Test A postemergence; settings: postemergence
# From the text: as §1, §2
# [6] = system: pigweed (Amaranthus retroflexus); experiment: Test A postemergence; settings: postemergence
# From the text: as §1, §2
# corn (Zea mays) = experiment: Test A postemergence; settings: postemergence
# From the text: as §1, §2
# [7] = system: giant foxtail (Setaria faberii); experiment: Test A postemergence; settings: postemergence
# From the text: as §1, §2
# Kochia (Kochia scoparia) [8] = experiment: Test A postemergence; settings: postemergence
# From the text: as §1, §2
# [9] = system: ryegrass, Italian (Italian ryegrass, Lolium multiflorum); experiment: Test A postemergence; settings: postemergence
# From the text: as §1, §2
# [10] = system: ducksalad (Heteranthera limosa); experiment: Test B flooded paddy test; settings: Flood, 0 to 100 scale where 0 is no effect and 100 is complete control, 13 to 15 d
# Experimental: (§3) Plant species in the flooded paddy test selected from rice (Oryra sativa), sedge, umbrella (small-flower umbrella sedge, Cyperus difformis), ducksalad (Heteranthera limosa), and barnyardgrass (Echinochloa crus-galli) were grown to the 2-leaf stage for testing. At time of treatment, test pots were flooded to 3 cm above the soil surface, treated by application of test compounds directly to the paddy water, and then maintained at that water depth for the duration of the test. Treated plants and controls were maintained in a greenhouse for 13 to 15 d, after which time all species were compared to controls and visually evaluated. Plant response ratings, summarized in Table B, are based on a scale of 0 to 100 where 0 is no effect and 100 is complete control. A dash (-) response means no test result.
# [11] = system: sedge, umbrella (small-flower umbrella sedge, Cyperus difformis); experiment: Test B flooded paddy test; settings: Flood, 0 to 100 scale where 0 is no effect and 100 is complete control, 13 to 15 d
# Experimental: as §3
# [12] = system: barnyardgrass (Echinochloa crus-galli); experiment: Test B flooded paddy test; settings: Flood, 0 to 100 scale where 0 is no effect and 100 is complete control, 13 to 15 d
# Experimental: as §3
# rice (Oryra sativa) = experiment: Test B flooded paddy test; settings: Flood, 0 to 100 scale where 0 is no effect and 100 is complete control, 13 to 15 d
# Experimental: as §3
# [13] = system: ragweed (common ragweed, Ambrosia elatior); experiment: Test A preemergence
# From the text: as §1, §2
# [14] = system: barnyardgrass (Echinochloa crus-galli); experiment: Test A preemergence
# From the text: as §1, §2
# [15] = system: pigweed (Amaranthus retroflexus); experiment: Test A preemergence
# From the text: as §1, §2
# [16] = system: giant foxtail (Setaria faberii); experiment: Test A preemergence
# From the text: as §1, §2
# Kochia (Kochia scoparia) [17] = experiment: Test A preemergence
# From the text: as §1, §2
# [18] = system: ryegrass, Italian (Italian ryegrass, Lolium multiflorum); experiment: Test A preemergence
# From the text: as §1, §2
# [19] = 125 g ai/ha, visual injury rating on 0 to 100 scale (0 no effect, 100 complete control), approx. 10 d
# [20] = 500 g ai/ha, 0 to 100 scale, 0 no effect, 100 complete control
# [21] = 125 g ai/ha, preemergence, 0 to 100 scale (0 no effect, 100 complete control)
# [22] = Preemergence, 500 g ai/ha, visual injury approx. 10 d
# [23] = 125 g ai/ha, visual rating after approx. 10 d, 0 to 100 scale (0 no effect, 100 complete control)
# [24] = 500 g ai/ha, visual injury, 0 to 100 scale (0 no effect, 100 complete control), approx. 10 d
# [25] = 125 g ai/ha, Preemergence, visual injury after approximately 10 d, 0 to 100 scale where 0 is no effect and 100 is complete control
# [26] = 500 g ai/ha, preemergence, 0 to 100 scale, 0 = no effect, 100 = complete control
smiles,measurement,setting,value
O=C1NCC(c2cccc(OC(F)F)c2)C1C(=O)Nc1ccccc1OC(F)F (stereo not drawn) [Compound 427],Ragweed plant response rating,[1]; [19],0
same,"Plant response rating, Ragweed",[1]; [20],20
same,Wheat plant response rating,[2]; [19],0
same,"Plant response rating, Wheat",[2]; [20],20
same,Barnyardgrass plant response rating,[3]; [19],60
same,"Plant response rating, Barnyardgrass",[3]; [20],80
same,Blackgrass plant response rating,[4]; [19],20
same,"Plant response rating, Blackgrass",[4]; [20],40
same,Galium plant response rating,[5]; [19],40
same,"Plant response rating, Galium",[5]; [20],50
same,Pigweed plant response rating,[6]; [19],0
same,"Plant response rating, Pigweed",[6]; [20],0
same,Corn plant response rating,corn (Zea mays); [19],0
same,"Plant response rating, Corn",corn (Zea mays); [20],20
same,"Foxtail, Giant plant response rating",[7]; [19],50
same,"Plant response rating, Foxtail, Giant",[7]; [20],80
same,Kochia plant response rating,Kochia (Kochia scoparia) [8]; [19],0
same,"Plant response rating, Kochia",Kochia (Kochia scoparia) [8]; [20],20
same,"Ryegrass, Italian plant response rating",[9]; [19],0
same,"Plant response rating, Ryegrass, Italian",[9]; [20],20
same,"Plant response rating, Ducksalad",[10]; 500 g ai/ha,100
same,"Plant response rating, Sedge, Umbrella",[11]; 500 g ai/ha,0
same,"Plant response rating, Barnyardgrass",[12]; 500 g ai/ha,40
same,"Plant response rating, Rice",rice (Oryra sativa); 500 g ai/ha,0
same,"Plant response rating, Ragweed",[13]; [21],0
same,"Ragweed plant response rating (0 to 100 scale, 0 is no effect, 100 is complete control)",[13]; [22],40
same,"Plant response rating, Barnyardgrass",[14]; [21],40
same,"Barnyardgrass plant response rating (0 to 100 scale, 0 is no effect, 100 is complete control)",[14]; [22],90
same,"Plant response rating, Pigweed",[15]; [21],0
same,"Pigweed plant response rating (0 to 100 scale, 0 is no effect, 100 is complete control)",[15]; [22],40
same,"Plant response rating, Foxtail, Giant",[16]; [21],90
same,"Foxtail, Giant plant response rating (0 to 100 scale, 0 is no effect, 100 is complete control)",[16]; [22],90
same,"Plant response rating, Kochia",Kochia (Kochia scoparia) [17]; [21],30
same,"Kochia plant response rating (0 to 100 scale, 0 is no effect, 100 is complete control)",Kochia (Kochia scoparia) [17]; [22],80
same,"Plant response rating, Ryegrass, Italian",[18]; [21],0
same,"Ryegrass, Italian plant response rating (0 to 100 scale, 0 is no effect, 100 is complete control)",[18]; [22],30
CN1CC(c2cc(F)cc(F)c2)C(C(=O)Nc2cccc3c2CCCC3)C1=O (stereo not drawn) [Compound 660],"Plant response rating, Ragweed",[1]; [23],0
same,"Plant response rating, Ragweed",[1]; [24],0
same,"Plant response rating, Wheat",[2]; [23],0
same,"Plant response rating, Wheat",[2]; [24],0
same,"Plant response rating, Barnyardgrass",[3]; [23],50
same,"Plant response rating, Barnyardgrass",[3]; [24],80
same,"Plant response rating, Blackgrass",[4]; [23],0
same,"Plant response rating, Blackgrass",[4]; [24],40
same,"Plant response rating, Galium",[5]; [23],0
same,"Plant response rating, Galium",[5]; [24],0
same,"Plant response rating, Pigweed",[6]; [23],0
same,"Plant response rating, Pigweed",[6]; [24],0
same,"Plant response rating, Corn",corn (Zea mays); [23],0
same,"Plant response rating, Corn",corn (Zea mays); [24],0
same,"Plant response rating, Foxtail, Giant",[7]; [23],80
same,"Plant response rating, Foxtail, Giant",[7]; [24],90
same,"Plant response rating, Kochia",Kochia (Kochia scoparia) [8]; [23],0
same,"Plant response rating, Kochia",Kochia (Kochia scoparia) [8]; [24],0
same,"Plant response rating, Ryegrass, Italian",[9]; [23],0
same,"Plant response rating, Ryegrass, Italian",[9]; [24],0
same,"Plant response rating, Ducksalad",[10]; 250 g ai/ha,60
same,"Plant response rating, Sedge, Umbrella",[11]; 250 g ai/ha,0
same,"Plant response rating, Barnyardgrass",[12]; 250 g ai/ha,45
same,"Plant response rating, Rice",rice (Oryra sativa); 250 g ai/ha,15
same,"Plant response rating, Ragweed",[13]; [25],0
same,"Plant response rating, Ragweed",[13]; [26],0
same,"Plant response rating, Barnyardgrass",[14]; [25],60
same,"Plant response rating, Barnyardgrass",[14]; [26],90
same,"Plant response rating, Pigweed",[15]; [25],0
same,"Plant response rating, Pigweed",[15]; [26],0
same,"Plant response rating, Foxtail, Giant",[16]; [25],80
same,"Plant response rating, Foxtail, Giant",[16]; [26],90
same,"Plant response rating, Kochia",Kochia (Kochia scoparia) [17]; [25],0
same,"Plant response rating, Kochia",Kochia (Kochia scoparia) [17]; [26],0
same,"Plant response rating, Ryegrass, Italian",[18]; [25],0
same,"Plant response rating, Ryegrass, Italian",[18]; [26],20
